Patent US20140000884A1, “PETROLEUM RECOVERY PROCESS AND SYSTEM” (Shell Oil Company, priority 2012, published 2014)

Assay: Dynamic viscosity of crude/dimethyl sulfide blends (rheometer, closed cup)
Assay type: physicochemical
Protocol: The quality of dimethyl sulfide as an oil recovery agent based on the crude oil viscosity lowering properties of dimethyl sulfide was evaluated. Three crude oils having widely disparate viscosity characteristics—an African Waxy crude, a Middle Eastern asphaltic crude, and a Canadian asphaltic crude—were blended with dimethyl sulfide.
A control sample of each crude was prepared containing no dimethyl sulfide, and samples of each crude were prepared and blended with dimethyl sulfide to prepare crude samples containing increasing concentrations of dimethyl sulfide. Each sample of each of the crudes was heated to 60° C. to dissolve any waxes therein and to permit weighing of a homogeneous liquid, weighed, allowed to cool overnight, then blended with a selected quantity of dimethyl sulfide. The samples of the crude/dimethyl sulfide blend were then heated to 60° C. and mixed to ensure homogeneous blending of the dimethyl sulfide in the samples. Absolute (dynamic) viscosity measurements of each of the samples were taken using a rheometer and a closed cup sensor assembly. Viscosity measurements of each of the samples of the West African waxy crude and the Middle Eastern asphaltic crude were taken at 20° C., 40° C., 60° C., 80° C., and then again at 20° C. after cooling from 80° C., where the second measurement at 20° C. is taken to measure the viscosity without the presence of waxes since wax formation occurs slowly enough to permit viscosity measurement at 20° C. without the presence of wax. Viscosity measurements of each of the samples of the Canadian asphaltic crude were taken at 5° C., 10° C., 20° C., 40° C., 60° C., 80° C.

CSC [Dimethyl Sulfide, dimethyl sulfide]
Viscosity (DMS 1.43 wt. %, 20° C.): 212525 mPa s
Viscosity (DMS 1.43 wt. %, 40° C.): 14721 mPa s
Viscosity (DMS 1.43 wt. %, 60° C.): 2209 mPa s
Viscosity (DMS 1.43 wt. %, 80° C.): 538 mPa s
Viscosity (DMS 2.07 wt. %, 20° C.): 134880 mPa s
Viscosity (DMS 2.07 wt. %, 40° C.): 10523 mPa s
Viscosity (DMS 2.07 wt. %, 60° C.): 1747 mPa s
Viscosity (DMS 2.07 wt. %, 80° C.): 427 mPa s
Viscosity (DMS 4.87 wt. %, 20° C.): 28720 mPa s
Viscosity (DMS 4.87 wt. %, 40° C.): 3235 mPa s
Viscosity (DMS 4.87 wt. %, 60° C.): 985 mPa s
Viscosity (DMS 4.87 wt. %, 80° C.): 328 mPa s
